Assay results from ChEMBL document CHEMBL1132621, “Synthesis, structure-activity relationships, and in vivo evaluations of substituted di-tert-butylphenols as a novel class of potent, selective, and orally active cyclooxygenase-2 inhibitors. 1. Thiazolone and oxazolone series” (J Med Chem, 1999).

Columns and labels:
[1] = target: T1, Prostaglandin G/H synthase 2 (Homo sapiens, UniProt P35354); experiment: IC50 against recombinant human Prostaglandin G/H synthase 2
T1 sequence (P35354 whole entry): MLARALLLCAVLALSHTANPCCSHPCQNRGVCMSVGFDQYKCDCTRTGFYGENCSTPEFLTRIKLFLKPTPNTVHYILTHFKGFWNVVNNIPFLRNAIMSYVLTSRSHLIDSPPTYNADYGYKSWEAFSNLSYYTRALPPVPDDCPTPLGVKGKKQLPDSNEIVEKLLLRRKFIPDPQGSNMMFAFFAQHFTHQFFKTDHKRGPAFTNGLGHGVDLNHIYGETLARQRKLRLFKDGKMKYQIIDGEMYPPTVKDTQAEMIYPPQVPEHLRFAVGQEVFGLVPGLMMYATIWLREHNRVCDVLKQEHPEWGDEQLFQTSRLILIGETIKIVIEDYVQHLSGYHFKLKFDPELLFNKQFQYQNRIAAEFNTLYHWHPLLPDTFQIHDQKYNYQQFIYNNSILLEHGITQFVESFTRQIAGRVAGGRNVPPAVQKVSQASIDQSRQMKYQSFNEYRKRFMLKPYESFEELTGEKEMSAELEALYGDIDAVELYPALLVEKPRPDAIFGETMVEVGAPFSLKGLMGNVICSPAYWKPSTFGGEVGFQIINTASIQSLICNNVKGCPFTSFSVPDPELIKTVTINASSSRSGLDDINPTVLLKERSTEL

[2] = target: T2, Prostaglandin G/H synthase 2 (Mus musculus, UniProt Q05769)
T2 sequence (Q05769 whole entry): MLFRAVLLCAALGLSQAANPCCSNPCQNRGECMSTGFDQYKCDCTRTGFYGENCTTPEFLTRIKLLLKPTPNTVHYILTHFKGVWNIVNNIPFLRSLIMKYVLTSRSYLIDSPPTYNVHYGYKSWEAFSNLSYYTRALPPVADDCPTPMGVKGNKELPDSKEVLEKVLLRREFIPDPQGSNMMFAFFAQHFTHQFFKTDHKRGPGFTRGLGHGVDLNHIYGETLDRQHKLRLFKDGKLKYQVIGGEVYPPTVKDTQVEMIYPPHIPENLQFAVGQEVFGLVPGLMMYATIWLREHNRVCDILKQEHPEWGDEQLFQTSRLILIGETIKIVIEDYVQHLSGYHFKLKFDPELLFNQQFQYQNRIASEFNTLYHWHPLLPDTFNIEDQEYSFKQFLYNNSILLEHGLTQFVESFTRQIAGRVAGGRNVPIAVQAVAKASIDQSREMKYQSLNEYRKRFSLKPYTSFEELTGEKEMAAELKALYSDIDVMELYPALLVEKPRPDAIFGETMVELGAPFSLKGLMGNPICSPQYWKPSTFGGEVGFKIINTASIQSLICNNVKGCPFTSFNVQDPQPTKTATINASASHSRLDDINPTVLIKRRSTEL
Description: IC50 value was determined against Prostaglandin G/H synthase 2 of J7744A.1 cell lines.

[3] = target: T3, Prostaglandin G/H synthase 1 (Homo sapiens, UniProt P23219); experiment: (§1) IC50 against Prostaglandin G/H synthase 1 from human platelet rich plasma
[4] = target: T4, Prostaglandin G/H synthase 1 (Ovis aries, UniProt P05979)
T4 sequence (P05979 whole entry): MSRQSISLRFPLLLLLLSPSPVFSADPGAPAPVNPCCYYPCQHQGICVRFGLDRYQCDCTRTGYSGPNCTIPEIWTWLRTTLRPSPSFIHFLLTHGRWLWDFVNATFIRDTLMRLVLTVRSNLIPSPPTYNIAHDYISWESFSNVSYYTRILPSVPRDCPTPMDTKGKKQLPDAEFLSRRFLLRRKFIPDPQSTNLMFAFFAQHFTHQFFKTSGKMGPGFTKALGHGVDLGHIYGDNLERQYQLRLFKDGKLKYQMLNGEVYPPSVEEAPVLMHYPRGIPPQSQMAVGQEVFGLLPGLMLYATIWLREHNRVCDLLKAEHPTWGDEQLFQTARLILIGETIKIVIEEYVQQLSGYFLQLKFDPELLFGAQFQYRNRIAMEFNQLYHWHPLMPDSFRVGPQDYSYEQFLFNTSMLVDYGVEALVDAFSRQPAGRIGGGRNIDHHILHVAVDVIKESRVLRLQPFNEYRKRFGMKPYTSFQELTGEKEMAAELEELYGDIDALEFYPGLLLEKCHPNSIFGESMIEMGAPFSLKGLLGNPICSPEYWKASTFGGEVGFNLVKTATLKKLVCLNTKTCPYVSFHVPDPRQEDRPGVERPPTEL
Description: IC50 against ovine Prostaglandin G/H synthase 1

[5] = target: T3, Prostaglandin G/H synthase 1; experiment: as §1
[6] = target: T1, Prostaglandin G/H synthase 2; experiment: IC50 value against recombinant human Prostaglandin G/H synthase 2; not active
[7] = target: T5, Prostaglandin G/H synthase 1 (Ovis aries) (UniProt P05979); experiment: IC50 value against ovine Prostaglandin G/H synthase 1; Not active; conditions: concentration not given here
T5 sequence (whole entry): T4 sequence (P05979 whole entry)

[8] = target: T3, Prostaglandin G/H synthase 1; experiment: IC50 value was determined against Prostaglandin G/H synthase 1 of human platelet rich plasma; Not active
Rattus norvegicus [9] = species on record: Rattus norvegicus; experiment: ED50 measured by CFE assay; assay type: functional
Rattus norvegicus [10] = species on record: Rattus norvegicus; experiment: Percentage of gastric damage was measured in rats.; assay type: functional, Stomach
Rattus norvegicus [11] = species on record: Rattus norvegicus; experiment: Lesion frequency measured in rats; assay type: functional
Rattus norvegicus [12] = species on record: Rattus norvegicus; experiment: Percentage inhibition of the prostaglandin synthesis was measured in rats.; assay type: functional
Mus musculus = species on record: Mus musculus; experiment: ED50 measured by hyperalgesia assay; assay type: functional
[13] = target: T5, Prostaglandin G/H synthase 1 (Ovis aries); experiment: IC50 value against ovine Prostaglandin G/H synthase 1 at 10 uM
[14] = target: T5, Prostaglandin G/H synthase 1 (Ovis aries); experiment: IC50 value against oCOX-1 at 10 uM
[15] = target: T5, Prostaglandin G/H synthase 1 (Ovis aries); experiment: IC50 value against oCOX-1 at 10 uM; Not active
[16] = target: T6, Prostaglandin G/H synthase 2 (Homo sapiens) (UniProt P35354); experiment: IC50 value against recombinant human Prostaglandin G/H synthase 2 at 10 uM
T6 sequence (whole entry): T1 sequence (P35354 whole entry)

T3 sequence (P23219 whole entry): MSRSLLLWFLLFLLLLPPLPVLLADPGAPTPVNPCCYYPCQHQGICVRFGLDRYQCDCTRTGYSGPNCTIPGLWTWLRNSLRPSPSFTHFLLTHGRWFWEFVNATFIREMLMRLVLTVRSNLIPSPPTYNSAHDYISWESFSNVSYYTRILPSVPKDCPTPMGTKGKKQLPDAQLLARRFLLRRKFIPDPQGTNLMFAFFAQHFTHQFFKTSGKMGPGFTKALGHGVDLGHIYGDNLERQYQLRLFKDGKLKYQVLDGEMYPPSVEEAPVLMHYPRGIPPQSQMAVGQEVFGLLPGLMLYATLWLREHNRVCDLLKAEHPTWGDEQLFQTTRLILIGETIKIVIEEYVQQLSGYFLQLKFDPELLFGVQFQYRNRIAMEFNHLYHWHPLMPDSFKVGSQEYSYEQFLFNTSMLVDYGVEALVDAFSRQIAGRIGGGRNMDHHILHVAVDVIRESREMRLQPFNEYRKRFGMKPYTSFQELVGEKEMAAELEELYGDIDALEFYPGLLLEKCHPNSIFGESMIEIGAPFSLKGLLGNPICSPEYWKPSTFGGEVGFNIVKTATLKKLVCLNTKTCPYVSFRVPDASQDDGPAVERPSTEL

SMILES | IC50 [1] [nM] | IC50 [2] [nM] | IC50 [3] [nM] | IC50 [4] [nM] | IC50 [5] [nM] | other results
C=CCONC1=NC(=O)/C(=C/c2cc(C(C)(C)C)c(O)c(C(C)(C)C)c2)O1 | 26000 | 1900 | > 20000 | 4000 |  | 
CSC1=NC(=O)/C(=C/c2cc(C(C)(C)C)c(O)c(C(C)(C)C)c2)O1 |  | 540 |  | 1600 | 6400 | IC50 [6]: Not Active
CC(C)(C)c1cc(/C=C2\OC(=O)NC2=O)cc(C(C)(C)C)c1O | 34000 | 71 | 1200 | 95 |  | 
CCONC1=NC(=O)/C(=C/c2cc(C(C)(C)C)c(O)c(C(C)(C)C)c2)S1 | 3200 | 270 |  |  |  | inhibition [7]: < 20%; IC50 [8]: > 20000 nM
CC(C)(C)c1cc(/C=C2\SC(N=C(N)N)=NC2=O)cc(C(C)(C)C)c1O | 21000 | 430 |  | 6.1 | 250 | 
CS(=O)(=O)c1ccc(-n2nc(C(F)(F)F)cc2-c2ccc(F)cc2)cc1 [SC-58125] |  |  |  |  |  | ED40 (Rattus norvegicus [9]): > 30 mg/kg; Gastric damage (Rattus norvegicus [10]): 0%; Lesion frequency (Rattus norvegicus [11]): 0%; Inhibition (Rattus norvegicus [12]): -1.58%; ED40 (Mus musculus): 0.3 mg/kg; inhibition [13]: < 20%
CC(C)c1cc(/C=C2\SC(N=C(N)N)=NC2=O)cc(C(C)C)c1O | 1800 | 190 |  | 220 | 2700 | 
C=CCONC1=NC(=O)/C(=C/c2cc(C(C)(C)C)c(O)c(C(C)(C)C)c2)S1 | 2700 | 1600 |  |  |  | inhibition [7]: < 20%; IC50 [8]: > 20000 nM
CC(C)(C)c1cc(/C=C2\NC(=S)NC2=O)cc(C(C)(C)C)c1O | 260 | 83 | 990 | 1300 |  | 
CCONC1=NC(=O)/C(=C/c2cc(C(C)(C)C)c(O)c(C(C)(C)C)c2)O1 | 79000 | 650 | > 20000 | 3500 |  | 
CS(=O)(=O)Nc1ccc([N+](=O)[O-])cc1OC1CCCCC1 [NS-398] |  |  |  |  |  | ED40 (Rattus norvegicus [9]): 0.61 mg/kg; Gastric damage (Rattus norvegicus [10]): 0%; Lesion frequency (Rattus norvegicus [11]): 0%; Inhibition (Rattus norvegicus [12]): 30.7%; ED40 (Mus musculus): 7.4 mg/kg
CONC1=NC(=O)/C(=C/c2cc(C(C)(C)C)c(O)c(C(C)(C)C)c2)S1 [listing 1 of 2 here] |  |  |  |  |  | inhibition [7]: < 20%
CON(C)C1=NC(=O)/C(=C/c2cc(C(C)(C)C)c(O)c(C(C)(C)C)c2)S1 | 18000 | 1600 |  | 51000 | 5800 | ED40 (Rattus norvegicus [9]): 8.1 mg/kg; Damaged area (Rattus norvegicus [10]): 0.04%; Lesion frequency (Rattus norvegicus [11]): 25%; Inhibition (Rattus norvegicus [12]): 52.2%; ED40 (Mus musculus): 0.06 mg/kg
CONC1=NC(=O)/C(=C/c2cc(C(C)(C)C)c(O)c(C(C)(C)C)c2)S1 [listing 2 of 2 here] | 1700 | 170 |  |  |  | IC50 [8]: > 20000 nM
CC(C)(C)c1cc(/C=C2\SC(=S)NC2=O)cc(C(C)(C)C)c1O | 1500 | 390 | > 20000 | 24000 |  | 
CSC1=NC(=O)/C(=C/c2cc(C(C)(C)C)c(O)c(C(C)(C)C)c2)S1 | 1800 | 1600 |  | 63000 | 14400 | 
CC(C)(C)c1cc(/C=C2\SC(NC#N)=NC2=O)cc(C(C)(C)C)c1O | 55000 | 230 |  |  | > 20000 | inhibition [14]: < 20%
CC(C)(C)c1cc(/C=C2\SC(=O)NC2=O)cc(C(C)(C)C)c1O | 4700 | 60 | 9300 | 42000 |  | 
COc1ccc2c(c1)c(CC(=O)O)c(C)n2C(=O)c1ccc(Cl)cc1 [INDOMETHACIN] |  |  |  |  |  | ED40 (Rattus norvegicus [9]): 1.6 mg/kg; Gastric damage (Rattus norvegicus [10]): 0.18%; Lesion frequency (Rattus norvegicus [11]): 75%; Inhibition (Rattus norvegicus [12]): 96.5%; ED40 (Mus musculus): 0.6 mg/kg
CONC1=NC(=O)/C(=C/c2cc(C(C)(C)C)c(O)c(C(C)(C)C)c2)S1.C[N+](C)(C)CC[O-] |  |  |  |  |  | ED40 (Rattus norvegicus [9]): 15.7 mg/kg; Gastric damage (Rattus norvegicus [10]): 0%; Lesion frequency (Rattus norvegicus [11]): 0%; Inhibition (Rattus norvegicus [12]): 32.8%; ED40 (Mus musculus): 0.1 mg/kg
CONC1=NC(=O)/C(=C/c2cc(C(C)(C)C)c(O)c(C(C)(C)C)c2)O1 |  | 790 | > 20000 | 7300 |  | 
C/C(=C1/SC(N=C(N)N)=NC1=O)c1cc(C(C)(C)C)c(O)c(C(C)(C)C)c1 | 12000 | 180 | 590 | 460 |  | 
CONC1=NC(=O)/C(=C/c2cc(C(C)C)c(O)c(C(C)C)c2)S1 | 570 | > 20000 |  | > 20000 | > 20000 | 
CC(C)(C)c1cc(C=C2SC(=N)NC2=O)cc(C(C)(C)C)c1O [DARBUFELONE] |  | 69 |  |  | 600 | inhibition [15]: < 20%; inhibition [16]: 41%
CC(C)(C)c1cc(/C=C2\SC(NO)=NC2=O)cc(C(C)(C)C)c1O | 1500 | 170 |  | 52000 | 9200 | 
CN1C(NC(=N)N)=NC(=O)/C1=C/c1cc(C(C)(C)C)c(O)c(C(C)(C)C)c1 | 81000 | 750 | 1500 | 27 |  | 
CC(C)(C)c1cc(/C=C2\OC(N=C(N)N)=NC2=O)cc(C(C)(C)C)c1O | 5100 | 440 | 4400 | 1200 |  | 
